Assay: Storage stability of amorphous empagliflozin at 5±3°C (HPLC chemical purity, PXRD)
Type: physicochemical
Settings: for Chemical Purity (HPLC) / PXRD: Temp = 5 ± 3° C.
Experimental: • (a) (1S)-1,5-anhydro-1-C-[4-chloro-3-[[4-[[(3S)-tetrahydro-3-furanyl]oxy]phenyl]methyl]phenyl]-D-glucitol, i.e., empagliflozin (amorphous) • Apparatus: A liquid chromatographic system is to be equipped with variable • wavelength UV-Detector and Integrator. • Column: Promosil C18, 250×4.6 mm, 100 A°, 5 μm or equivalent • Column Temperature: 40° C. • Wavelength: 225 nm • Flow rate: 1.2 mL/min • Injection volume: 5 μL • Run Time: 60 min • Elution: Gradient • Diluent: Acetonitrile: Water (50:50 v/v) • Mobile phase A: Buffer solution • Mobile phase B: Acetonitrile: Water (95:5 v/v) • Buffer solution: Transfer accurately about 1 mL of ortho phosphoric acid into 1000 mL of milli-Q water, filter through 0.45 μm nylon membrane and sonicate to degas. • (b) Amorphous solid dispersion of empagliflozin and ethyl cellulose (EC) • Chromatographic conditions are same as given under (a). • (c) Amorphous solid dispersion of empagliflozin and hydroxypropyl cellulose (HPC) • Chromatographic conditions are same as given under (a), except for: • Wavelength: 220 nm • Column temperature: 35° C. • Mobile Phase B: Acetonitrile: Water (90:10 v/v) • (d) (1S)-1,5-anhydro-1-C-[4-chloro-3-[(4-ethoxyphenyl)methyl] phenyl]-D-glucitol i.e., dapagliflozin • Chromatographic conditions are same as given under (a), except for: • Column temperature: 35° C. • Run Time: 55 min • Mobile Phase B: Acetonitrile: Water (90:10 v/v)
The diffraction patterns were measured using Bruker D2 PHASER diffractometer equipped with LYNXEYE™ detector, used radiation Cu Kα (λ=1.54060 Å), excitation voltage: 30 kV, anode current: 10 mA, measured range: 3-40° 2θ, increment: 0.01° 2θ.

Chemical Purity (HPLC) (Stability period 1 month): 99.90
PXRD (Stability period 1 month): Amorphous
Chemical Purity (HPLC) (Stability period 3 months): 99.88
PXRD (Stability period 3 months): Amorphous
Chemical Purity (HPLC) (Stability period 6 months): 99.89
PXRD (Stability period 6 months): Amorphous
Chemical Purity (HPLC) (Stability period 12 months): 99.88
PXRD (Stability period 12 months): Amorphous
Chemical Purity (HPLC) (Stability period Initial): 99.88
PXRD (Stability period Initial): Amorphous
stable on storage (period) (storage at 5±3° C.): 12 months
SMILES: OC[C@H]1O[C@@H](c2ccc(Cl)c(Cc3ccc(O[C@H]4CCOC4)cc3)c2)[C@H](O)[C@@H](O)[C@@H]1O [Empagliflozin, (1S)-1,5-anhydro-1-C-[4-chloro-3-[[4-[[(3S)-tetrahydro-3-furanyl]oxy]phenyl]methyl]phenyl]-D-glucitol]

Reference: US20180346502A1, “Processes for the Preparation of SGLT-2 Inhibitors, Intermediates Thereof” (Emmennar Pharma Private Limited, priority 2017, published 2018)
